Results on 22 molecules are retold here after patent publication US20090105238A1, “Compounds and Relative use for the Control of Phytopathogens” (ISAGRO RICERCA S.r.l, priority 2005, published 2009).

The test system of test [1] is Plasmopara viticola. The test is described as follows: Fungicidal (preventive) activity against Peronospora of vines, leaf spray. In kind it is in vivo, Plasmopara viticola on vine (cultivar Dolcetto). The following applies: for Activity 125 ppm / Activity 250 ppm: 7-day preventive activity; for Activity 125 ppm: scale 0 to 100 (healthy plant); for Activity 250 ppm: scale 0 (completely infected plant) to 100 (healthy plant); for Activity (dose ppm): 7-day preventive, scale 0-100. Here is the method: Determination of the Fungicidal Activity Against Peronospora of Vines (Plasmopara viticola) […] After remaining 24 hours in a conditioned environment, the plants were sprayed on both sides of the leaves with an aqueous suspension of conidia of Plasmopara viticola (20,000 conidia per cm^3). The plants are kept in a humidity saturated environment at 21° C. for the incubation period of the fungus.

The subject of test [2] is Erysiphe graminis. The test is described as follows: Fungicidal (preventive) activity against oidium of wheat, leaf spray. To be noted: 5-day preventive, scale 0-100. The format is in vivo, Erysiphe graminis on wheat (cultivar Gemini). On the procedure: Determination of the Fungicidal Activity Against Oidium of Wheat (Erysiphe graminis)
(§1) Leaves of wheat plants (cultivar Gemini), grown in vases in a conditioned environment (20±1° C., 70% relative humidity) are treated by spraying both sides of the leaves with compounds 1, 2 and 3, dispersed in a hydroacetone solution at 20% by volume in acetone. […]
(§2) The plants are kept in a humidity saturated environment at a temperature ranging from 18 to 24° C. for the incubation period of the fungus.
At the end of this period (12 days), the fungicidal activity is evaluated according to an evaluation percentage scale from 0 (completely infected plant) to 100 (healthy plant).

For test [3], the system named is Puccinia recondita. The experiment in a line: Fungicidal (preventive) activity against wheat rust, leaf spray. To be noted: 5-day preventive, scale 0-100. In kind it is in vivo, Puccinia recondita on wheat (cultivar Gemini). On the procedure: Determination of the Fungicidal Activity Against Wheat Rust (Puccinia recondita)
as §1, §2
At the end of this period (14 days), the fungicidal activity is evaluated according to an evaluation percentage scale from 0 (completely infected plant) to 100 (healthy plant).

For test [4], the system named is PR1. The experiment in a line: Gene response (PR1 expression, quantitative PCR) in treated seedlings. To be noted: 800 ppm and 1600 ppm; leaves collected after 24 hours of treatment; compared with blank and glycine betaine (FIG. 1). In kind it is in vivo, arabidopsis thaliana. On the procedure: Determination of the Gene Response of the Compounds Having General Formula (I) and their Mixtures with Other Fungicides
Four-week-old seedlings of arabidopsis thaliana were treated with the compounds having general formula (I) or their mixtures with other fungicides and the leaves were collected after 24 hours of treatment.
The total RNA was extracted from 0.05 g of fresh tissue using the “Genelute mammalian total RNA kit (Sigma)” according to the protocol indications. The cDNA were synthesized using “RevertAid™ M-MuLV Reverse Transcriptase” commercialized by Fermentas Life Sciences according to the following protocol: 2 μg of total RNA were mixed with 0.5 μg of oligo(dT) 18.
Deionized water (nuclease free) was then added to bring the reaction volume to 11 μl, the reaction was subsequently incubated at 70° C. for 5 minutes and then cooled in ice.
The following reagents were then added to the mixture:
4 μl of 5× reaction buffer, 10 mM of dNTP mix, 20 units of Ribonuclease inhibitor.
The reaction was incubated at 37° C. for 5 minutes, 200 units of RevertAid™ M-MuLV Reverse Transcriptase were subsequently added to the mixture and the reaction was incubated at 42° C. for 60 minutes. […]
A quantitative PCR analysis was effected on the cDNA using a mixture of primer/competimers of the ribosomal RNA 18S as internal standard in a ratio of 9:1. […]

Regarding `CCCCCCCCCCCC[N+](C)(C)CC(O)CS(=O)(=O)[O-]` (centres unmarked) [Compound 5, Laurylhydroxysultaine], in test [1], the “Activity 125 ppm” value is 85 and the “Activity 250 ppm” value stood at 99.

As to `CCCCCCCCCCCC(=O)NCCC[N+](C)(C)CC(=O)[O-]` [Compound 7, Laurylamidopropylbetaine], in test [1], the “Activity 125 ppm” value is given as 95 and the “Activity 250 ppm” value was 100.

As for `CCCCCCCCCCCC(=O)NCCC[N+](C)(C)C(C(=O)[O-])C(C)C` (centres unmarked) [Compound 24, laurylamidopropyl[L]valinebetaine], in test [1], the “Activity 125 ppm” value is reported as 88 and the “Activity 250 ppm” value was 99.

In the case of `CCCCCCCCCCCC(=O)NCCC[N+]1(C)CCCC1C(=O)[O-]` (centres unmarked) [Compound 25, laurylamidopropyl[L]prolinebetaine], in test [1], the “Activity 125 ppm” value is 95 and the “Activity 250 ppm” value worked out at 100.

For the molecule `CCCCCCCCCCCC(=O)NCCC[N+](C)(C)C(C)C(=O)[O-]` (centres unmarked) [Compound 26, laurylamidopropyl[L]alaninebetaine], in test [1], the “Activity 125 ppm” value is listed as 90 and the “Activity 250 ppm” value was determined as 95.

`CCCCCCCCCCCC(=O)NCCC[N+](C)(C)C(CC(=O)[O-])c1ccccc1` (stereo not drawn) [Compound 28, laurylamidopropyl- β-phenylalaninebetaine]: in test [1], the “Activity 125 ppm” value was 90 and the “Activity 250 ppm” value was found to be 99.

Consider `CCCCCCCCCCCC(=O)NCCC[N+](C)(C)C(CC(=O)[O-])c1ccc(Cl)cc1` (stereo not drawn) [Compound 29, laurylamidopropyl-β-4-chlorophenylalaninebetaine], for which, in test [1], the “Activity 125 ppm” value was 90 and the “Activity 250 ppm” value worked out at 95.

Consider `CCCCCCCCCCCC(=O)NCCC[N+](C)(C)CCC(=O)[O-]` [Compound 30, laurylamidopropyl- β-alaninebetaine], for which, in test [1], the “Activity 125 ppm” value worked out at 85 and the “Activity 250 ppm” value is recorded as 90.

Take `C[N+](C)(C)CC(=O)[O-]` [Glycine betaine, reference compound]: in test [1] (30 ppm), the “Activity (dose ppm)” value amounted to 30.

Regarding `COC(=O)CC(NC(=O)[C@@H](NC(=O)OC(C)C)C(C)C)c1ccc(Cl)cc1` (some centres unmarked) [IR5885, reference compound], the “Activity (dose ppm)” value in test [1] (0.22 ppm) was 15; in test [1] (0.45 ppm), 41; in test [2] (500 ppm), 20; in test [3] (500 ppm) it was 15.

Turning to `FC(F)C(F)(F)OCC(Cn1cncn1)c1ccc(Cl)cc1Cl` (centres unmarked) [Tetraconazole, tetraconazole], the results for the “Activity (dose ppm)” value in test [1] (30 ppm), in test [2] (1.8 ppm) and in test [3] (30 ppm) were 20, 48 and 58, respectively.

As to “Cholanylamidopropylbetaine [Compound 11]”, in test [1], the “Activity 125 ppm” value turned out to be 90 and the “Activity 250 ppm” value amounted to 94.

“Cholesterylcarbonylamidopropylbetaine [Compound 10]”: in test [1], the “Activity 125 ppm” value was 90 and the “Activity 250 ppm” value was 95.

“Cocamidopropyl- β-4-chlorophenylalaninebetaine [Compound 36]”: in test [1], the “Activity 125 ppm” value came to 85 and the “Activity 250 ppm” value was found to be 94.

As to “Cocamidopropyl- β-alaninebetaine [Compound 37]”, in test [1], the “Activity 125 ppm” value came to 86 and the “Activity 250 ppm” value was determined as 98.

Consider “Cocamidopropyl-β-phenylalaninebetaine [Compound 35]”, for which, in test [1], the “Activity 125 ppm” value is 89 and the “Activity 250 ppm” value was determined as 95.

For “Cocamidopropyl[L]phenylglycinebetaine [Compound 34]”, in test [1], the “Activity 125 ppm” value came out at 88 and the “Activity 250 ppm” value came to 97.

As for “Cocamidopropyl[L]prolinebetaine [Compound 32]”, in test [1], the “Activity 125 ppm” value worked out at 88 and the “Activity 250 ppm” value amounted to 95.

As for “Cocamidopropyl[L]valinebetaine [Compound 31]”, in test [1], the “Activity 125 ppm” value is reported as 85 and the “Activity 250 ppm” value is given as 98.

As to Cocamidopropylbetaine [Compound 8], the “Activity 125 ppm” value in test [1] is reported as 98. Besides, the “Activity 250 ppm” value in test [1] is 100. Also, the “Activity (dose ppm)” value is recorded as 30 in test [1] (30 ppm), 20 (500 ppm) in test [2] (500 ppm) and 29 (125 ppm) in test [3] (125 ppm). In test [4], the gene response result is “exceptional gene response”.

As to “Cocamidopropylhydroxysultaine [Compound 9]”, in test [1], the “Activity 125 ppm” value is 95 and the “Activity 250 ppm” value is listed as 100.

Regarding “cocamidopropyl[L]alaninebetaine [Compound 33]”, in test [1], the “Activity 125 ppm” value is recorded as 85 and the “Activity 250 ppm” value is on record as 96.
